Measurements: patent US11814366B2, “Antiviral compounds and use thereof” (UNIVERSITA DEGLI STUDI DI SIENA, priority 2018, dated 2023)

Legend:
HIV Strain AD8 = test: HIV-1 inhibition assay, strain NL(AD8), TZM-bl cells, CPRG readout; format: cell-based
Cytotoxicity, XTT test = conditions: human
HIV Strain NL4-3 = test: HIV-1 inhibition assay, strain NL4-3, TZM-bl cells, CPRG readout; format: cell-based
Procedure: The human TZM-bl indicator cell line (obtained from the NIH AIDS reagents program, cat. Nr 8129, www.aidsreagent.org) was maintained at 37° C. and 5% CO2 in Dulbecco's modified Eagle's medium (DMEM) medium containing 10% fetal bovine serum, 50 μg/ml penicillin, and 50 μg/ml streptomycin. The HIV-1 laboratory strains NL (AD8) (NIH AIDS reagents program, cat. Nr, 11346) and NL4.3 (NIH AIDS reagents program, cat. Nr. 114) were titrated as previously reported by Tiberi et al (2014). Briefly, serial 5-fold dilutions of each virus were made in quadruplicate wells in 96-well culture plates, in a total volume of 100 μl of growth medium (DMEM), for a total of 8 dilution steps. Freshly trypsinized cells (20,000 cells in 100 μl of growth medium containing 75 μg/mL DEAE-dextran) were added to each well, and the plates were incubated at 37° C. in a humidified 5% CO2-95% air environment. After 48 h of incubation, the medium was removed and viral infection was quantified using a β-galactosidase (CPRG) assay (Roche). Twenty thousand TZM-bl cells/well were seeded in 96-well plates in complete DMEM supplemented with 30 μg/ml DEAE-dextran (Sigma-Aldrich). Three hundred times the 50% tissue culture infective dose (TCID50)/ml of each strain was pretreated for 1 h at 37° C. with six serial dilutions (10000 nM, 2000 nM, 400 nM, 80 nM, 16 nM, 3.2 nM) and then added to the cells. Vehicle (0.1% dimethyl sulfoxide [DMSO])-treated cells served as a negative control. […] After 2 days, viral infection was quantified using a CPRG assay (Roche cat nr 11379119103). The inhibitory curves were fitted by nonlinear regression, allowing for the calculation of the 50% effective concentration (EC50) using the Prism software. To evaluate the cell toxicity of the compounds, the metabolic XTT [2,3-bis-(2-methoxy-4-nitro-5-sulfophenyl)-2H-tetrazolium-5-carboxanilide] test (Sigma-Aldrich) was performed according to the manufacturer's instructions.

HSV-2 = HSV-2 plaque reduction assay on Vero cells; format: cell-based, Herpes 2 virus (HSV-2); conditions: for SI selectivity index: HSV-2, CC50 divided by EC50; for EC90 / EC50: Human alphaherpesvirus 2, Vero, HSV-2 infected cells; for EC90: 90% effective concentration; for EC50: compound mixed with virus 1 hour at 37° C.
ZIKAV = test: ZIKA virus plaque reduction assay on Vero cells; format: cell-based, Zika virus (PRVABC59); conditions: for SI selectivity index: ZIKAV, CC50 divided by EC50; for EC50 / EC90: Zika virus, Vero, ZIKAV infected cells
H1N1 = H1N1 inhibition assay on MDCK cells; format: cell-based, Influenza virus H1N1; conditions: for SI selectivity index: H1N1, CC50 divided by EC50; for EC50 / EC90: Influenza A virus, MDCK, H1N1 infected cells; for EC50: read-out: EC50; for EC90: read-out: EC90
Procedure: MDCK cells were pre-plated in 96-well plates. The following day, concentrations of compounds ranging from 50 μM to 0.0001 μM in DMSO were mixed with H1N1 (MOI 0.05 pfu/cell) and incubated for 1 hour at 37° C. The mixtures were subsequently added to the cells for 1 h at 37° C., after a washout, cells were overlaid with MEM for 16 h at 37° C. Cells were then fixed and subjected to specific immunostaining using a Flu A monoclonal antibody (Merck 5001) in order to visualize infected cells. EC50 were calculated by comparing numbers of infected cells in treated and untreated wells. The effective concentration producing 50% reduction in plaque formation (EC50) was determined using Prism software. The selectivity index (SI) was calculated by dividing the CC50 by the EC50 value.

DENV-2 = test: DENV plaque reduction assay on Huh-7 cells; format: cell-based, Dengue virus; conditions: for SI selectivity index: DENV-2, CC50 divided by EC50; for EC50: Dengue virus, DENV2, Huh-7, DENV-2 infected cells
Procedure: The effect of compounds on DENV infection was evaluated by plaque reduction assay. Huh-7 cells were pre-plated 24 h in advance in 24-well plates at a density of 10^5 cells. Concentrations of compounds ranging from 50 μM to 0.0001 μM in DMSO were mixed with DENV-2 (MOI 0.01 pfu/cell) and incubated for 1 hour at 37° C. The mixtures were subsequently added to the cells, which were then incubated at 37° C. for 2 h. The virus inoculum was then removed and the cells washed and overlaid with a medium containing 1.2% methylcellulose (Sigma). After further incubation at 37° C. for 72 h cells were fixed and stained with 0.1% crystal violet in 20% ethanol and viral plaques counted. The effective concentration producing 50% reduction in plaque formation (EC50) were determined using Prism software by comparing drug-treated wells with wells treated with medium and DMSO. The selectivity index (SI) was calculated by dividing the CC50 by the EC50 value.

[1] = Cell viability (MTS) assay, Huh-7 cells; format: cell-based; conditions: human, conditions of the DENV-2 assay (Table 6)
Procedure: Cell viability was measured using the MITS [3-(4,5-dimethylthiazol-2-yl)-5-(3 carboxy methoxy phenyl)-2-(4-sulfophenyl)-2H-tetrazolium] assay. Cell cultures were seeded in 96-well plates and were incubated with different concentrations of compounds of the invention in triplicate under the same experimental conditions described for the antiviral assays. Cell viability was determined using the CellTiter 96 Proliferation Assay Kit (Promega, Madison, WI, USA) according to the manufacturer's instructions. Absorbances were measured using a Microplate Reader (Model 680, BIORAD) at 490 nm. The effect on cell viability at different concentrations of the compound was expressed as a percentage, by comparing absorbances of treated cells with those of cells incubated with culture medium and equal volumes of vehicle. The 50% cytotoxic concentrations (CC50) and 95% confidence intervals (CIs) were determined using Prism software (Graph-Pad Software, San Diego, CA).

in vitro [2] = conditions: African green monkey
in vitro [3] = conditions: dog
[4] = Human immunodeficiency virus 1, NL43, virus pretreated 1 h at 37° C. with compound
[5] = CC50, conditions of the HSV-2 assay (Table 2)
[6] = CC50, conditions of the ZIKAV assay (Table 3)
[7] = virus pretreated 1 h at 37° C. with compound

O=C(O)c1ccc(-c2ccc(/C=C3\SC(=S)N(Cc4ccc(Cl)cc4)C3=O)[nH]2)cc1O [Compound 7b, (Z)-4-(5-((3-(4-chlorobenzyl)-4-oxo-2-thioxothiazolidin-5-ylidene)methyl)-1H-pyrrol-2-yl)-2-hydroxybenzoic Acid]
EC50 (HIV Strain AD8; Human immunodeficiency virus 1, virus pretreated 1 h at 37° C. with compound): 0.532 µM | CC50 (Cytotoxicity, XTT test; TZM-bl cells): > 20 µM

O=C1NC(=S)N(Cc2ccccc2)C(=O)/C1=C\c1ccc(-c2ccc(C(=O)O)c(O)c2)[nH]1 [Compound 15a, (Z)-4-(5-((1-benzyl-4,6-dioxo-2-thioxotetrahydropyrimidin-5(2H)-ylidene)methyl)-1H-pyrrol-2-yl)-2-hydroxybenzoic Acid]
EC50 (HIV Strain NL4-3; [4]): 0.217 µM | CC50 (Cytotoxicity, XTT test): > 20 µM

O=C1NC(=S)N(CCc2ccccc2)C(=O)/C1=C/c1ccc(-c2ccc(-c3nnn[nH]3)cc2)[nH]1 [Compound 15c, (Z)-5-((5-(4-(1H-tetrazol-5-yl)phenyl)-1H-pyrrol-2-yl)methylene)-dihydro-3-henethyl-2-thioxopyrimidine-4,6(1H,5H)-dione]
SI selectivity index (HSV-2): >1435 | EC90 (HSV-2): 0.618 µM | EC50 (HSV-2): 0.209 µM | SI selectivity index (ZIKAV): >12000 | EC50 (ZIKAV): 0.0258 µM | EC90 (ZIKAV): 0.365 µM | SI selectivity index (H1N1): >379 | EC50 (H1N1): 0.793 µM | EC90 (H1N1): 1.76 µM | SI selectivity index (DENV-2): 20.6 | EC50 (DENV-2): 3.4 µM | CC50 [1]: 70 µM | CC50 (in vitro [2]; [5]): > 300 µM | CC50 (in vitro [2]; [6]): > 300 µM | CC50 (in vitro [3]): > 300 µM

N#Cc1ccc(-c2ccc(/C=C3\C(=O)NC(=S)N(CCc4ccccc4)C3=O)[nH]2)cc1 [Compound 15d, 4-(5-((Z)-(tetrahydro-4,6-dioxo-3-phenethyl-2-thioxopyrimidin-5(6H)-lidene)methyl)-1H-pyrrol-2-yl)benzonitrile]
SI selectivity index (HSV-2): >8.7 | EC90 (HSV-2): 88.2 µM | EC50 (HSV-2): 34.5 µM | SI selectivity index (ZIKAV): >272.7 | EC50 (ZIKAV): 1.11 µM | EC90 (ZIKAV): 26.6 µM | SI selectivity index (H1N1): >12 | EC50 (H1N1): 25 µM | EC90 (H1N1): 372 µM | CC50 (in vitro [2]; [5]): > 300 µM | CC50 (in vitro [2]; [6]): > 300 µM | CC50 (in vitro [3]): > 300 µM

O=C1NC(=S)N(CCc2ccc(O)cc2)C(=O)/C1=C\c1ccc(-c2ccc(C(=O)O)c(O)c2)[nH]1 [Compound 15f, (Z)-2-hydroxy-4-(5-((1-(4-hydroxyphenethyl)-4,6-dioxo-2-thioxotetrahydropyrimidin-5(2H)-ylidene)methyl)-1H-pyrrol-2-yl)benzoic Acid]
SI selectivity index (DENV-2): 3.6 | EC50 (DENV-2): 7.8 µM | CC50 [1]: 28 µM

O=C1NC(=S)N(Cc2ccccn2)C(=O)/C1=C\c1ccc(-c2ccc(-c3nnn[nH]3)cc2)[nH]1 [Compound 15p, (Z)-5-((5-(4-(1H-tetrazol-5-yl)phenyl)-1H-pyrrol-2-yl)methylene)-1-(pyridin-2-ylmethyl)-2-thioxodihydropyrimidine-4,6(1H,5H)-dione]
SI selectivity index (DENV-2): 7.3 | EC50 (DENV-2): 12.2 µM | CC50 [1]: 89 µM

O=C1NC(=S)NC(=O)C1=Cc1ccc(-c2cc(C(F)(F)F)ccc2Cl)[nH]1 [Compound 17a, 5-((5-(2-chloro-5-(trifluoromethyl)phenyl)-1H-pyrrol-2-yl)methylene)-2-thioxodihydropyrimidine-4,6(1H,5H)-dione]
CC50 (Cytotoxicity, XTT test): > 20 µM

O=C1NC(=S)NC(=O)C1=Cc1ccc(-c2ccc(C(=O)O)c(O)c2)[nH]1 [Compound 17b, 4-(5-((4,6-dioxo-2-thioxotetrahydropyrimidin-5(2H)-ylidene)methyl)-1H-pyrrol-2-yl)-2-hydroxybenzoic Acid]
EC50 (HIV Strain NL4-3; [4]): 0.16 µM | SI selectivity index (HSV-2): >429.8 | EC90 (HSV-2): 7.47 µM | EC50 (HSV-2): 0.698 µM | CC50 (in vitro [2]; [5]): > 300 µM | CC50 (Cytotoxicity, XTT test): > 20 µM

O=C(O)c1ccc(-c2ccc(CC3C(=O)NC(=S)N(CCc4ccccc4)C3=O)[nH]2)cc1O (stereo not drawn) [Compound 18, 4-(5-((hexahydro-4,6-dioxo-1-phenethyl-2-thioxopyrimidin-5-yl)methyl)-1H-pyrrol-2-yl)-2-hydroxybenzoic Acid]
SI selectivity index (HSV-2): >417.2 | EC90 (HSV-2): 0.128 µM | EC50 (HSV-2): 0.712 µM | SI selectivity index (ZIKAV): >849.8 | EC50 (ZIKAV): 0.0353 µM | EC90 (ZIKAV): 0.308 µM | SI selectivity index (H1N1): >238 | EC50 (H1N1): 1.26 µM | EC90 (H1N1): 14.9 µM | CC50 (in vitro [2]; [5]): > 300 µM | CC50 (in vitro [2]; [6]): > 300 µM | CC50 (in vitro [3]): > 300 µM

Cc1nnc(C(=O)NC(C)(C)c2nc(C(=O)NCc3ccc(F)cc3)c(O)c(=O)n2C)o1 [Ral, raltegravir, reference compound]
EC50 (HIV Strain NL4-3; [4]): 0.021 µM | CC50 (Cytotoxicity, XTT test): > 20 µM

maraviroc [reference compound]
EC50 (HIV Strain AD8; [7]): 0.0367 µM | EC50 (HIV Strain NL4-3; [7]): > 20 µM
